In assay [1] the target is T1, Bromodomain testis-specific protein [287-359] (Homo sapiens, UniProt Q58F21).
T1 construct: 287-359
Nature of the assay: AlphaScreen Assay. An excerpt: (§1) No details are given.
Background: Bead proximity is the source of the signal in Alpha formats.

The target in assay [2] is T2, Bromodomain testis-specific protein [44-116] (UniProt Q58F21).
T2 construct: 44-116
Nature of the assay: AlphaScreen Assay.
Excerpt: as §1

SMILES strings stand for the structures.

As to `Cc1cc(N)ccc1-c1nn(C)c2ccc(-c3cncnc3)cc12` [US20240158355, Compound 76], the figures for the 50% inhibitory concentration (IC50) in assay [1] and in assay [2] were 9.48 µM and 5.44 µM, respectively.

Values taken from BindingDB's records for patent US20240158355 (Baylor College of Medicine, 2024).
